T1: c-Abl kinase domain (Mus musculus, UniProt P00520)
T1 sequence (P00520 242-493 limits assumed): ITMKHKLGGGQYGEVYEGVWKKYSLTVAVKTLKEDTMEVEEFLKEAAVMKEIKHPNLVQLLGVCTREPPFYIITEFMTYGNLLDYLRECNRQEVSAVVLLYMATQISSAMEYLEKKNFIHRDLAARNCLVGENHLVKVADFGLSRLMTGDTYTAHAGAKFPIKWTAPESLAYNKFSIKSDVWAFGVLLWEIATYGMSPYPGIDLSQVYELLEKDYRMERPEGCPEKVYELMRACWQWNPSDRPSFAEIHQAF


Legend:
c-Src kinase domain [1] = molecular target: T2, c-Src kinase domain (Homo sapiens, UniProt P12931); assay: pTyr-Var library bacterial peptide display kinase screen (enrichment scores); type: biochemical; details: sheet "Src";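 also: log2 fold change in enrichment of variant over reference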
EPHB2 kinase domain = assay: as above; type: biochemical, human; details: sheet EPHB2;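 also: log2 fold change in enrichment of variant over reference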
EPHB1 kinase domain = assay: as above; type: biochemical, human; details: for Screen (variant relative to reference peptide, measured in the pTyr-Var library screen): sheet "EPHB1", variant seq vs reference seq, bacterial peptide display enrichment; for Screen: sheet EPHB1, effect of the variant peptide relative to its reference peptide in the pTyr-Var library screen (enrichment scores)
Fer kinase domain = assay: as above; type: biochemical, mouse; details: sheet "Fer"
c-Abl kinase domain = molecular target: T1, c-Abl kinase domain; assay: as above; type: biochemical; details: sheet "Abl"; effect of variant peptide relative to its reference peptide in pTyr-Var library screen (enrichment);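 also: log2 fold change in enrichment of variant over reference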
c-Src kinase domain [2] = molecular target: T2, c-Src kinase domain; assay: ADP-Quest continuous fluorimetric kinase assay (Michaelis-Menten parameters and initial rates); type: biochemical
Excerpt: A fluorescence-based assay from Eurofins (ADP Quest) was used to measure the Michaelis-Menten kinetic parameters for phosphorylation of the consensus peptides by purified tyrosine kinase domains. In this assay, ADP production as a result of kinase activity is coupled to the production of resorufin, a fluorophore that emits signal at 590 nm. For all experiments, the assay reactions were set up as described in the provided assay kit protocol, in a 384 well plate format. The peptide solutions were serially diluted in 100 mM Tris, pH 8.0, and the kinases were diluted to 50 nM in buffer (10 mM HEPES, 100 mM NaCl, 1 mM TCEP, 5 mM MgCl2, 10% (v/v) glycerol). The final reaction mixtures contained 10 nM of kinase with 100 μM of ATP. Reactions were initiated with the addition of 1 mM ATP into a 50 μL reaction mixture for a final concentration of 100 μM ATP. Phosphorylation reaction progress was monitored by measuring fluorescence at excitation 530 nm and emission 590 nm every 2 min at 37 °C on a plate reader (BioTek Synergy Neo 2). The fluorescence units (RFU) were converted to μM ADP by comparison to a standard curve, and the initial rates were extracted from the linear regime of the reaction progress curves. Initial rates were also measured for samples containing each kinase but lacking a peptide substrate, to account for background ATP hydrolysis. This background rate was subtracted from the rates measured in the presence of peptide. The subtracted rates were plotted as a function of substrate concentration and fit to the Michaelis-Menten equation to extract kcat and KM values.

c-Src kinase domain [3] = molecular target: T2, c-Src kinase domain; assay: RP-HPLC assay to measure peptide phosphorylation kinetics; type: biochemical; details: purified peptide substrate
Experimental: To validate the enrichment scores observed in the c-Src screening data, the phosphorylation rates were measured in vitro with the purified catalytic domain of c-Src and synthetic 11-residue peptides derived from sequences in the pTyr-Var library. […] Reactions were initiated by adding 1 mM ATP. At various time points, 100 μL aliquots were removed and quenched by the addition of EDTA to a final concentration of 25 mM. Each time point sample was analyzed by analytical RP-HPLC, monitoring absorbance at 214 nm. Forty μL of each time point was injected onto a C18 column (ZORBAX 300 SB-C18, 5 μm, 4.6x150 mm). The solvent system used was water with 0.1% trifluoroacetic acid (solvent A) and acetonitrile with 0.1% trifluoroacetic acid (solvent B). […] The fractional product peak area was plotted as a function of reaction time, and the initial linear regime of this plot was fitted to a straight line to determine a reaction rate. Rates were corrected for substrate and enzyme concentration. Reactions were done in triplicate or quadruplicate.

[4] = molecular target: human c-Src kinase domain (residues 260-528) (human) (UniProt P12931)
[5] = variant peptide versus its reference peptide in the pTyr-Var library screen
[6] = effect of the variant relative to its reference peptide in the pTyr-Var library screen
[7] = variant peptide relative to its reference peptide, pTyr-Var library screen enrichment
[8] = effect of variant peptide relative to its reference peptide in the pTyr-Var library screen (enrichment scores)
[9] = value of the variant peptide against its reference peptide in the pTyr-Var library screen with Fer
[10] = effect of the variant peptide relative to its reference peptide in the pTyr-Var library screen
[11] = ADP-Quest assay, c-Src kinase domain 10 nM, 100 μM ATP, 37 °C, three to five replicates, error = standard error of global Michaelis-Menten fit

Row | Molecule | Screen (c-Src kinase domain [1]; [5]) | Screen (EPHB2 kinase domain; [8]) | Screen (Fer kinase domain; [9]) | Screen (EPHB1 kinase domain) | also measured
1 | PLFGEYFTLQI [TP53_Y327_D324Y_YF] | 1.11 |  |  |  | Screen (EPHB2 kinase domain; [6]): 0.9055; Screen (variant relative to reference peptide, measured in the pTyr-Var library screen) (EPHB1 kinase domain): 1.054
2 | HAVFIYDICHV [TWNK_Y508_V507I_YF] | -0.8811 |  |  |  | Screen (EPHB2 kinase domain; [6]): 1.461; Screen (Fer kinase domain; [7]): 0.388; Screen (variant relative to reference peptide, measured in the pTyr-Var library screen) (EPHB1 kinase domain): 1.032
3 | LTERGYSFTTK [ACTG1_Y198_T203K] |  | 1.886 | 1.86 | 1.554 | 
4 | TSSAVYMNLAS [GATAD2B_Y317_I316V] |  | -2.447 | -2.177 | -2.461 | Screen (c-Src kinase domain [1]; [10]): -0.9997
5 | EPFELYCEMGS [CBL_Y371_Q367P_YF] |  | -0.2507 |  | -0.3443 | 
6 | FAELVYTVFWH [ASS1_Y322_G324V] |  | 0.0379 | -0.2764 | 0.03348 | Screen (c-Src kinase domain [1]; [10]): 0.03298
7 | QTPVLYAMLFH [MPZ_Y220_D224Y_YF] |  | -1.088 | -0.58 | -0.7178 | Screen (c-Src kinase domain [1]; [10]): -0.1434
8 | NSNSDYVDILP [SH2D1B_Y127_V130I] |  | 0.0762 |  |  | Screen (variant relative to reference peptide, measured in the pTyr-Var library screen) (EPHB1 kinase domain): -0.2012
9 | LDAFIYNAAVL [GRIN2A_Y730_D731N] |  | -1.324 | -3.433 | -1.471 | Screen (c-Src kinase domain [1]; [10]): -1.489
10 | SMEGLYSSAQD [CLIC5_Y111_T114A] |  | -0.2512 | 0.3754 | -0.2291 | Screen (c-Src kinase domain [1]; [10]): 0.03653
11 | KELALYDENWF [RPS19_Y48_P47L] |  | 4.277 |  | 4.03 | Screen (Fer kinase domain; [7]): 3.889
12 | GNLLIYTEFGN [HGD_Y166_K171N] |  | 0.7326 |  | 0.6139 | Screen (c-Src kinase domain [1]; [10]): -0.3322
13 | IMNLLYHVVGW [GBA_Y412_T408M] |  | -0.4774 | -0.4668 | -0.2669 | Screen (c-Src kinase domain [1]; [10]): 0.1521
14 | CEQELYSQLVF [WAS_Y102_W97C_YF] | -0.1333 |  |  |  | Screen (c-Abl kinase domain): -3.187; Screen (EPHB2 kinase domain; [6]): -2.338; Screen (Fer kinase domain; [7]): -0.3985; Screen (variant relative to reference peptide, measured in the pTyr-Var library screen) (EPHB1 kinase domain): -2.23
15 | HKDNNYISMWF [PAPOLG_Y432_V433I] |  | -1.118 | -1.378 | -1.294 | 
16 | QNTGFYFDLFG [PTPN11_Y62_D61Y_YF] | -1.182 | -4.029 |  | -3.875 | 

Row | Molecule | Screen (c-Src kinase domain [1]; [5]) | Screen (EPHB2 kinase domain; [8]) | Screen (Fer kinase domain; [9]) | Screen (EPHB1 kinase domain) | also measured
17 | FGSIMYEFVGK [SLC18A1_Y251_V249I] | -1.273 | -1.759 |  |  | Screen (Fer kinase domain; [7]): -0.674; Screen (variant relative to reference peptide, measured in the pTyr-Var library screen) (EPHB1 kinase domain): -1.716
18 | PSAELYSFALP [PDGFRB_Y716_N718Y_YF] | 2.409 | 2.567 | 1.182 | 2.14 | 
19 | Ac-IGEGTYRTVFK-NH2 [CDK5_Y15_G16R, pTyr-Var library variant phosphosite peptide] |  | -2.132 |  |  | Screen (c-Src kinase domain [1]; [10]): -3.502
20 | MARDIYQASFF [LTK_Y672_R673Q_YF] |  | 1.961 | 3.102 | 2.318 | Screen (c-Src kinase domain [1]; [10]): 3.363
21 | KAPPTYDNVLQ [CYP3A4_Y347_T349N] |  | -1.141 | -0.1979 | -0.1539 | 
22 | DLHGIYQKLVI [TTN_Y21998_R21995H] | 0.02812 |  |  |  | Screen (c-Abl kinase domain): -2.013; Screen (EPHB2 kinase domain; [6]): 1.178; Screen (Fer kinase domain; [7]): 0.5861; Screen (variant relative to reference peptide, measured in the pTyr-Var library screen) (EPHB1 kinase domain): 1.244
23 | VATRWYWSPEL [CDKL5_Y177_R178W] |  | 2.978 |  | 3.423 | 
24 | Ac-GPDEPIYEWWWIKKKG-NH2 [Fer Consensus, Fer consensus substrate peptide from X5-Y-X5 screen] |  |  |  |  | Km (c-Src kinase domain [2]; [11]): 8 ± 4 µM; kcat (c-Src kinase domain [2]; [11]): 0.4±0.1 s^–1; phosphorylation of consensus peptide by c-Src (initial rate relative to cognate consensus) (c-Src kinase domain [2]; low concentration: peptide 20 μM, kinase 10–50 nM, Figure 2—figure supplement 2): significant off-target activity
25 | ISKTWYSAEQF [CD207_Y217_P213S] |  | -0.7343 |  | -0.7306 | 
26 | PLDGEYFTLPI [TP53_Y327_Q331P] | 1.231 |  |  |  | Screen (EPHB2 kinase domain; [6]): 3.847; Screen (Fer kinase domain; [7]): 0.4845; Screen (variant relative to reference peptide, measured in the pTyr-Var library screen) (EPHB1 kinase domain): 3.664
27 | Ac-SGDINYGQFAQ-NH2 [PLCG1_Y210_T209N, pTyr-Var library variant phosphosite peptide] | -3.177 |  |  |  | Phosphorylation Rate (c-Src kinase domain [3]): 0.307 s⁻¹
28 | LDVGEYCVPRG [BEX1_Y43_A40V] |  | -0.4602 |  | -0.3957 | 
29 | LPHVIYCRLWC [SMAD2_Y128_R133C] | 1.251 | 1.893 |  |  | Screen (variant relative to reference peptide, measured in the pTyr-Var library screen) (EPHB1 kinase domain): 2.05
30 | PLDGEYFILQI [TP53_Y327_T329I] | -0.4119 |  |  |  | Screen (EPHB2 kinase domain; [6]): 0.5203; Screen (variant relative to reference peptide, measured in the pTyr-Var library screen) (EPHB1 kinase domain): 0.4645
31 | Ac-GPDEPIYEWWWIKKKG-NH2 [Fer Consensus peptide Ac-…-NH2] |  |  |  |  | KM (μM) of phosphorylation, Michaelis-Menten analysis, ADP-Quest assay [4]: 8 µM

From paper PMC10065799, “High-throughput profiling of sequence recognition by tyrosine kinases and SH2 domains using bacterial peptide display” (eLife, 2023)
